# Reference: patent publication US20250186326A1, “Anti-Aging Compositions” (PROGELIFE, priority 2022, published 2025)
# Columns and labels:
# [1] = tested on: farnesylation of prelamin A; assay: Western blot of prelamin A in human skin fibroblasts (inhibition of farnesylation); format: cell-based; conditions: human skin fibroblasts AG13334, 72 h, Ritonavir 4 μM and Lopinavir 20 μM added
# Experimental: (§1) Control Human fibroblast from skin (AG13334) were obtained from Coriell Institute. Cells were maintained in culture according to supplier information at 37° C. in a humidified atmosphere containing 5% CO2.
# (§2) Fibroblasts were cultured 72 h without culture-media renewal.
# (§3) Pravastatin/Compound II.3a • 14. Pravastatin/Compound II.2 • 15. Pravastatin/Compound I.12 • 16. Pravastatin/Compound II.5
# (§4) Ritonavir (4 μM) and Lopinavir (20 μM) were added in all tested conditions to improve the lower limit of detection of prenylated prelamin A in western blots.
# (§5) Total fibroblast proteins were extracted after 72 hours treatment in 100 μl of NP40 (Invitrogen) with 1× protease and phosphatase inhibitor cocktail (Life Technologies). Lysates were incubated on ice for 30 minutes, with vortexing at 10-minute intervals. Finally, they were sonicated four times (20 sec each) and then centrifuged at 13000 rpm for 10 minutes at 4° C.
# (§6) Protein concentrations were determined with the BCA™ Protein Assay (Life Technologies).
# (§7) The following antibodies were used in this study: rabbit monoclonal anti-lamin A/C (ab108922, 1/1000, Abcam, Amsterdam, Netherlands), mouse monoclonal anti-prelamin A (MABT858, Millipore, Molsheim, France), mouse monoclonal anti-HDJ2 (MA5-12748, Thermoscientific, France). Secondary antibodies conjugated with IR-Dye 800CW or 680 were used according to the manufacturer's instructions (926-32213 and 926-68072, 1/5000, Li-COR Biosciences).
# (§8) Protein lysates were separated on NuPAGE™ Novex™ 8% Bis-Tris Midi Protein Gels (Life Technologies) and transferred to Immobilon-FL PVDF membranes (Millipore, Molsheim, France). Membranes were blocked for one hour in 1:1 diluted blocking buffer for near fluorescent western blotting (Rockland, Le Perray, France). Blocked membranes were incubated with primary antibody anti-prelamin A overnight at 4° C., following which they were washed and incubated with conjugated secondary antibody for one hour at room temperature. Then, this step was repeated with primary antibodies for HDJ2 and LMNA/C, and conjugated secondary antibodies.
# (§9) Bound antibodies were detected and analyzed on an Odyssey imaging system (Li-COR Biosciences, Bad Homburg, Germany) according to the manufacturer's instructions. Revert Protein Stain (Li-COR Biosciences) was used as a total protein loading control.
# [2] = tested on: farnesylation of HDJ2; assay: Western blot of unfarnesylated HDJ2 in human skin fibroblasts (inhibition of farnesylation); format: cell-based; conditions: human skin fibroblasts AG13334, 72 h, Ritonavir 4 μM and Lopinavir 20 μM added
# Experimental: as §1, §2, §3, §4, §5, §6, §7, §8, §9
# [3] = tested on: wrinkles/fine lines; conditions: 3 ppm pal-KTTKS in moisturizer, topical, 12 weeks, split-face; cited from earlier work
# [4] = tested compound combined with Alendronate 10 μM
# [5] = tested compound combined with Pravastatin 10 μM
# [6] = controls: alendronate and/or pravastatin 10 μM without tested compound
Molecule,"prelamin A band (western blot, FIG. 1) [1, 4]","unfarnesylated HDJ2 band (western blot, FIG. 1) [2, 4]","prelamin A band (western blot, FIG. 1) [1, 5]","unfarnesylated HDJ2 band (western blot, FIG. 1) [2, 5]",also measured
Oc1ccc(/C=C/c2cc(O)cc(O)c2)cc1 [Compound I.1a],Clear bands,Clear bands,,,
O=c1c2cc(O)c(O)cc2oc2cc(O)c([C@@H]3O[C@H](CO)[C@@H](O)[C@H](O)[C@H]3O)c(O)c12 [Compound I.6a],Clear bands,Clear bands,,,
COc1ccc([C@@H]2CC(=O)c3c(O)cc(O[C@@H]4O[C@H](CO)[C@@H](O)[C@H](O)[C@H]4O[C@@H]4O[C@@H](C)[C@H](O)[C@@H](O)[C@H]4O)cc3O2)cc1O [Compound I.7a],Clear bands,Clear bands,,,
C[C@@H]1O[C@@H](O[C@H]2[C@H](Oc3cc(O)c4c(c3)O[C@H](c3ccc(O)cc3)CC4=O)O[C@H](CO)[C@@H](O)[C@@H]2O)[C@H](O)[C@H](O)[C@H]1O [Compound I.8a],Clear bands,Clear bands,,,
OC[C@H]1O[C@@H](OCCc2ccc(O)cc2)[C@H](O)[C@@H](O)[C@@H]1O [Compound I.12],,,Clear bands,Clear bands,
O=c1cc(-c2ccc(O)cc2)oc2cc(O)cc(O)c12 [Compound II.1],,,Clear bands,Clear bands,
O=C1c2cccc(O)c2C(=O)c2c(O)cc(CO)cc21 [Compound II.2],,,Clear bands,Clear bands,
Oc1cc(O)c2c(c1)O[C@H](c1ccc(O)c(O)c1)[C@@H](O)C2 [Compound II.3a],,,Clear bands,Clear bands,
O=c1c(O)c(-c2ccc(O)c(O)c2)oc2cc(O)cc(O)c12 [Compound II.5],,,Clear bands,Clear bands,
"NCCCC(O)(P(=O)(O)O)P(=O)(O)O [alendronate, reference compound]",,,,,"prelamin A band (western blot, FIG. 1) [1, 6]: essentially absent; unfarnesylated HDJ2 band (western blot, FIG. 1) [2, 6]: essentially absent"
palmitoyl-lysine-threonine-threonine-lysine-serine [pal-KTTKS],,,,,reduction in wrinkles/fine lines vs. placebo control (quantitative technical and expert grader image analysis) [3]: significant improvement
